According to patent US12492173B2, “Herbicidal substituted N-tetrazolyl aryl carboxamides” (Bayer Aktiengesellschaft, priority 2019, dated 2025):

Test system: Avena fatua
Test: Pre-emergence herbicidal action, AVEFA
Type: in vivo
Settings: comparative experiment, 20 g of a.i./ha
Excerpt: 1. Pre-Emergence Herbicidal Action Against Harmful Plants Seeds of monocotyledonous and dicotyledonous weed plants and crop plants are laid out in sandy loam soil in wood-fiber pots and covered with soil. The compounds of the invention, formulated in the form of wettable powders (WP) or as emulsion concentrates (EC), are then applied to the surface of the covering soil in the form of an aqueous suspension or emulsion at a water application rate equating to 600 to 800 l/ha, with addition of 0.2% wetting agent. After the treatment, the pots are placed in a greenhouse and kept under good growth conditions for the trial plants. The damage to the test plants is scored visually after a test period of 3 weeks by comparison with untreated controls (herbicidal activity in percent (%): 100% activity=the plants have died, 0% activity=like control plants). […] The tables below illustrate, in an exemplary manner, the post-emergence herbicidal action of the compounds according to the invention, the herbicidal activity being stated in percent. [table] In the experiments that follow, herbicidal action of numerous inventive compounds and the known compounds that are structurally closest from D1 (WO 2012/028579 A1) and D2 (WO 2018/202535 A1) were compared under the above-specified conditions by the pre-emergence and post-emergence method. […]

## CSCc1c(C(F)F)ccc(C(=O)Nc2nnnn2C)c1Cl [Example 1-320]
  Herbicidal action against AVEFA: 70
